Structures can show the parent of a compound that is named as a salt.
Target: T1, human FXa (Homo sapiens, UniProt P00742)
T1 construct: purchased Cosmobio ERL HFXa-1011
Assay: Determination of FXa-inhibiting effect (IC50 value), chromogenic substrate S2222
Assay type: biochemical
Conditions: 0.05 U/ml human FXa, substrate S2222, absorbance at 405 nm, room temperature, pH 7.4 buffer

T1 sequence (P00742 235-488 limits assumed): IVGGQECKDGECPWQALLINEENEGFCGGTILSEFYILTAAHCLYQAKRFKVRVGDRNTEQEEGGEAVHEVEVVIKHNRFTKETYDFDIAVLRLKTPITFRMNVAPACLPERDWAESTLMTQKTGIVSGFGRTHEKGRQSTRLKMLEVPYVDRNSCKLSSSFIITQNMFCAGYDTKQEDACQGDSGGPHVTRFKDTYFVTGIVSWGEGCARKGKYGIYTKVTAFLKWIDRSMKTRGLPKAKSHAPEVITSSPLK
T1 sequence (P00742 41-179 partner limits assumed): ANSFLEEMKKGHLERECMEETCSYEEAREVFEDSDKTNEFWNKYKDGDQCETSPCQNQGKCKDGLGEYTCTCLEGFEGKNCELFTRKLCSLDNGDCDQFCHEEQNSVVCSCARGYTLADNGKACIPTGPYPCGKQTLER

Row | IC50 [nM] | Molecule
1 | 83 | CN1CCc2nc(C(=O)N[C@@H]3CCCC[C@@H]3NC(=O)c3ccc4cc(Cl)ccc4c3)sc2C1 (racemic) [Example 10, (±)-cis-N^1-[(6-Chloronaphthalen-2-yl)carbonyl]-N^2-[(5-methyl-4,5,6,7-tetrahydrothiazolo[5,4-c]pyridin-2-yl)-carbonyl]-1,2-cyclohexanediamine hydrochloride]
2 | 92 | CN1CCc2nc(C(=O)N[C@@H]3CCCC[C@@H]3NC(=O)c3cc4cc(Br)ccc4[nH]3)sc2C1 (racemic) [Example 15, (±)-cis-N^1-[(5-Bromoindol-2-yl)carbonyl]-N^2-[(5-methyl-4,5,6,7-tetrahydrothiazolo[5,4-c]pyridin-2-yl)carbonyl]-1,2-cyclohexanediamine hydrochloride]
3 | 36 | CN1Cc2nc(C(=O)N[C@@H]3CCCC[C@@H]3NC(=O)c3cc4cc(Cl)ccc4[nH]3)sc2C1 (racemic) [Example 41, (±)-cis-N^1-[(5-Chloroindol-2-yl)carbonyl]-N^2-[(5-methyl-4,6-dihydro-5H-pyrrolo[3,4-d]thiazol-2-yl)carbonyl]-1,2-cyclohexanediamine hydrochloride]
4 | 4.1 | CC(C)N1CCc2nc(C(=O)N[C@@H]3CC(CO)C[C@H]3NC(=O)c3cc4cc(Cl)ccc4[nH]3)sc2C1 (single isomer, unassigned; stereoisomer b) [Example 68, (1R*,2R*)-N^1-[(5-Chloroindol-2-yl)carbonyl]-4-hydroxymethyl-N^2-[(5-isopropyl-4,5,6,7-tetrahydro-thiazolo[5,4-c]pyridin-2-yl)carbonyl]-1,2-cyclopentanediamine hydrochloride (Stereoisomer B)]
5 | 2.7 | CC(C)(CO)N1CCc2nc(C(=O)N[C@@H]3CC(CO)C[C@H]3NC(=O)c3cc4cc(Cl)ccc4[nH]3)sc2C1 (single isomer, unassigned; stereoisomer b) [Example 70, (1R*,2R*)-N^1-[(5-Chloroindol-2-yl)carbonyl]-N^2-[5-(1-dimethyl-2-hydroxyethyl)-4,5,6,7-tetrahydrothiazolo-[5,4-c]pyridin-2-yl)carbonyl]-4-hydroxymethyl-1,2-cyclopentanediamine hydrochloride (Stereoisomer B)]
6 | 3.3 | CN1CCc2nc(C(=O)N[C@@H]3C[C@@H](CO)CC[C@H]3NC(=O)c3cc4cc(Cl)ccc4[nH]3)sc2C1 [Example 176, (1R,2R,4S)—N^1-[(5-Chloroindol-2-yl)carbonyl]-4-hydroxymethyl-N^2-[(5-methyl-4,5,6,7-tetrahydrothiazolo[5,4-c]pyridin-2-yl)carbonyl]-1,2-cyclohexanediamine]
7 | 1.4 | (±)-cis-N^1(or N^2)-[(5-Chloroindol-2-yl)carbonyl]-4,4-(1,2-ethylenedioxy)-N^2(or N^1)-[(5-methyl-4,5,6,7-tetrahydrothiazolo[5,4-c]pyridin-2-yl)carbonyl]-1,2-cyclohexanediamine [Example 167]

Row | Molecule | IC50 [nM]
8 | CN1CCc2nc(C(=O)N[C@@H]3CCC[C@H]3NC(=O)c3cc4cc(Cl)ccc4[nH]3)sc2C1 (racemic) [Example 3, (±)-trans-N^1-[(5-Chloroindol-2-yl)carbonyl]-N^2-[(5-methyl-4,5,6,7-tetrahydrothiazolo[5,4-c]pyridin-2-yl)carbonyl]-1,2-cyclopentanediamine hydrochloride] | 86

— patent US7935824B2, “Ethylenediamine derivatives” (Daiichi Pharmaceutical Co., Ltd., priority 2000, dated 2011)
